Assay results as given in US20030005484A1, “Microbiocidal and pesticidal aromatic aldehydes” (ProGuard, Inc., priority 1994, published 2003).

How the values were obtained:
[1] = tested on: aphids; assay: aphids on sprayed roses; type: in vivo; settings: roses sprayed with emulsion of cinnamic aldehyde and sodium bicarbonate, concomitantly saponin
[2] = tested on: grape phylloxera; assay: grape phylloxera adult and nymphal mortality, root dip; type: in vivo, Daktulosphaira vitifoliae; settings: for mortality of adults and nymphs: root dip, 5 days
Description: Approximately twenty four eggs of phylloxera were allowed to develop for up to 30 days on standard excised grape roots. At around 30 days, some of the insects were nymphs while others were adults. New eggs were removed during the process. Insect infected roots were submerged into a test formula for 6 seconds then set aside to dry in the air. The percentage of live insects, as defined by growth, oviposition or limb movement, was determined after 5 days. An insect was considered dead if it abandoned its feed site.
In an initial test, doses of 20,000 ppm cinnamic aldehyde in water (i.e., 2% cinnamic aldehyde) with various additives were evaluated. Cinnamic aldehyde without any additives produced 83.3% mortality. With-1% Tween 80 added, 91.7% mortality was seen. With 6% NaHCO3 added to a solution of 2% cinnamic aldehyde, 91.7% mortality was seen. With 1% Tween 80 and 6% NaHCO3 added to a solution of 2% cinnamic aldehyde, 100% mortality was seen. Water with no additives produced no mortality, while a positive control solution of 250 ppm malathion in water gave 100% mortality.
For nymph and adult tests, eggs were placed on excised root pieces similar to those used for rearing purposes and these were sealed in Petri dishes and held at 24° C. for 18-25 days to allow insects to hatch, initiate feeding sites and develop. At about this time about half the population was in the adult stage. Prior to testing, the population on each root was determined as well as the developmental stage of each insect. Eggs were removed. These root pieces were then dipped for 5 sec into test solutions and allowed to air dry before they were returned to Petri dishes, sealed and placed back in the temperature chamber at 24° C. Mortality was determined after 5 days. Insects were considered dead if they appeared black or desiccated and if they had not developed since the pre-treatment reading and had laid no or few new eggs.

[3] = tested on: silverleaf white fly, Bemisia argentifolii; assay: silver leaf white fly Petri dish bioassay
Description: Activity of cinnamic aldehyde and/or coniferyl aldehyde against black bean aphid, Tetranychus urticae, and silverleaf white fly, Bemisia argentifolii was determined as follows:
Petri dishes (60 mm) were treated with cinnamic aldehyde at 10-25,000 ppm in 2% Tween 80 and 6% NaHCO3 dissolved in water, and allowed to air dry. Twenty adult silver leaf white fly were put in each dish, (replicate 10 times). The mortality after three hours in contact with a treated plate, was compared to that of silver leaf white fly in petri dishes treated only with diluent. Malathion at 250 ppm was used as a positive control.

[4] = tested on: melon aphid (Aphis gossypii Glover); assay: melon aphid plant foliar bioassay on chrysanthemum; type: in vivo; settings: for Mean Number of Aphid Nymphs Per Leaf: sprayed to runoff, after 36 hours, pre-count 60
Description: Treatment of melon aphid (Aphis gossypii Glover) was conducted as follows. Chrysantemums (C. morifolum) were used for melon aphid plant foliar bioassays. Plants were grown in […] pots in planting soil in greenhouse. Flowering plants were infested and pre-count population size for each plant were taken and number of mean of aphids nymphs per leaf calculated. The plants were sprayed to runoff (about 5 ml) with an aqueous formulation containing 1,000 ppm, 3,000 ppm, and 10,000 ppm concentration of cinnamic aldehyde, and a negative control containing only H2O. After 36 hours, the number of insects on the leaves sprayed with a given test formulation was determined and compared with that of insects on leaves sprayed with negative control only. Mean number of aphid nymphs per leaf were determined to be less than 10 for each cinnamic aldehyde concentration as compared to a pre-count mean of about 60.

[5] = tested on: Silverleaf Whitefly (Bemisia argentifolii); assay: silverleaf whitefly 1st and 2nd instars on poinsettia; type: in vivo; settings: 0.5% cinnamic aldehyde and […] Tween 20, 48 hours
Description: Clip cages were set on poinsettia plants leaves to capture white fly adults which then were allowed to oviposit for 48 hours. Four plants per treatment or control were put into an environmental chamber and the eggs allowed to incubate for 5 days until a majority of the eggs had hatched to first and second instar. Three treatments at 0.5% cinnamic aldehyde and 0.25% Tween 20 (T1, T2, T3) and three control treatments of 0.25% Tween 20 only (C1, C2, C3) were sprayed to run off on each plant. Mortality was recorded after 48 hours (see Table 23).

[6] = tested on: powdery mildew; assay: powdery mildew on Cabernet Sauvignon grapes; type: in vivo; settings: for % CLUSTERS INFECTED-FIRST DAY / MEAN # OF BERRIES/CLUSTER INFECTED FIRST DAY: 2 days post treatment; for % CLUSTERS INFECTED-SECOND DAY / MEAN # OF BERRIES/CLUSTER INFECTED SECOND DAY: 10 days post-treatment
Description: The effect of 0.3% and 0.6% cinnamic aldehyde on powdery mildew on grapes was examined. A 3 acre block of Cabernet Sauvignon that was severely infested with powdery mildew (primarily on grape berries) was sprayed with either 0.3% or 0.6% cinnamic aldehyde using a 300 gal. Pul-Blast sprayer at 160 psi fitted with 10, D4 nozels using a #56 core. Approximately 1.25 acres were treated for each cinnamic aldehyde concentration. A 0.5 acre plot of control grape vines were sprayed with a tank mix at label rates of other commercially available pesticides (Abound, Provado, Kelthan, Silwet L-77 and a foliar nutrient spray( 10-12-0+2% zinc)) costing approximately $87.00/acre. For the two cinnamic aldehyde treatments and control plots, 2 rows per treatment were visually inspected for severe powdery mildew infections and marked with flagging tape. At least 10 locations were marked in each row inspected and defined sampling positions for determining efficacy of the treatments. Water sensitive cards were placed at the level of the cordon wire (where grape clusters are located) and were used to monitor spray coverage. Two and ten days subsequent to treatment, samples from two sides of each vine (to include variable powdery mildew incidence due to sun exposure) were examined for powdery mildew. […] 0.3% cinnamic aldehyde reduced powdery mildew infection of grapes to a level similar to the positive control while 0.6% cinnamic aldehyde reduced powdery mildew infection even more than the standard. Upon examination of the mean number of berries infected with powdery mildew, again, it was evident that both 0.3% and 0.6% cinnamic aldehyde reduced the extent of powdery mildew infection to levels that were to similar or less than the positive control respectively.

Question: `O=C/C=C/c1ccccc1` [cinnamic aldehyde] was tested. Which “aphids on treated plants” value [1] did it give?
Answer: remained free of aphids

Question: And the “mortality of adults and nymphs” value ([2]; 2% cinnamic aldehyde with 1% Tween 80)?
Answer: 91.7%

Question: And the “mortality of adults and nymphs” value ([2]; 2% cinnamic aldehyde with 1% Tween 80 and 6% NaHCO3)?
Answer: 100%

Question: And the “mortality of adults and nymphs” value ([2]; 2% cinnamic aldehyde with 6% NaHCO3)?
Answer: 91.7%

Question: What about the mortality at 20000 ppm ([2]; Daktulosphaira vitifoliae, 120 h, 2% cinnamic aldehyde (20,000 ppm) in water, no additives, roots submerged 6 seconds, read after 5 days, read-out: mortality of adults and nymphs) of the same compound?
Answer: 83.3%

Question: And the “silver leaf white fly killed” value ([3]; 2500 ppm and above in 2% Tween 80 and 6% NaHCO3, three hours contact with treated dish)?
Answer: 100%

Question: And the mortality at 10 ppm ([3]; Bemisia argentifolii, 3 h)?
Answer: 25%

Question: What about the mortality at 100 ppm ([3]; Bemisia argentifolii, 3 h) of the same compound?
Answer: 50%

Question: What about the “Silver Leaf White Fly Mortality (Percent)” value ([3]; Cinnamic Aldehyde (20 g) with NaHCO3) of the same compound?
Answer: 87.3%

Question: And the “Silver Leaf White Fly Mortality (Percent)” value ([3]; Cinnamic Aldehyde (20 g) with T80(2%) + NaHCO3 (6%))?
Answer: 100%

Question: And the “Silver Leaf White Fly Mortality (Percent)” value ([3]; Cinnamic Aldehyde (20 g) with T80 (10 g))?
Answer: 72.1%

Question: What about the “Silver Leaf White Fly Mortality (Percent)” value ([3]; Cinnamic Aldehyde (20 g), no additive) of the same compound?
Answer: 68.6%

Question: What about the “Mean Number of Aphid Nymphs Per Leaf” value ([4]; CNMA 1,000 ppm in H2O) of the same compound?
Answer: 6 ± 3

Question: What about the “Mean Number of Aphid Nymphs Per Leaf” value ([4]; CNMA 3,000 ppm in H2O) of the same compound?
Answer: 4 ± 3

Question: And the “Mean Number of Aphid Nymphs Per Leaf” value ([4]; CNMA 10,000 ppm in H2O)?
Answer: 1 ± 1

Question: And the “Mean number of aphid nymphs per leaf” value ([4]; each concentration (1,000, 3,000, 10,000 ppm), pre-count mean of about 60)?
Answer: less than 10

Question: What about the “Alive, total of T1-T3” value [5] of the same compound?
Answer: 35

Question: And the “Dead, total of T1-T3” value [5]?
Answer: 363

Question: What about the “Mortality (%)” value ([5]; T1-T3 combined, Tween 20 control 9%) of the same compound?
Answer: 91%

Question: And the “% CLUSTERS INFECTED-FIRST DAY” value ([6]; 0.3% CNMA)?
Answer: 60%

Question: And the “MEAN # OF BERRIES/CLUSTER INFECTED FIRST DAY” value ([6]; 0.3% CNMA)?
Answer: 3.1

Question: What about the “% CLUSTERS INFECTED-SECOND DAY” value ([6]; 0.3% CNMA) of the same compound?
Answer: 0.22%

Question: And the “MEAN # OF BERRIES/CLUSTER INFECTED SECOND DAY” value ([6]; 0.3% CNMA)?
Answer: 0.72

Question: And the “% CLUSTERS INFECTED-FIRST DAY” value ([6]; 0.6% CNMA)?
Answer: 25%

Question: What about the “MEAN # OF BERRIES/CLUSTER INFECTED FIRST DAY” value ([6]; 0.6% CNMA) of the same compound?
Answer: 0.5

Question: What about the “% CLUSTERS INFECTED-SECOND DAY” value ([6]; 0.6% CNMA) of the same compound?
Answer: 0.2%

Question: What about the “MEAN # OF BERRIES/CLUSTER INFECTED SECOND DAY” value ([6]; 0.6% CNMA) of the same compound?
Answer: 0.25

Question: What about the “time control of powdery mildew was maintained” value ([6]; both treatments, 0.3% and 0.6%) of the same compound?
Answer: at least three weeks
